Assay results reported in ChEMBL document CHEMBL1155509, “3-Indolyl sultams as selective CRTh2 antagonists” (Bioorg Med Chem Lett, 2010).

Target: T1, Prostaglandin D2 receptor 2 (Homo sapiens, UniProt Q9Y5Y4)
T1 sequence (Q9Y5Y4 whole entry): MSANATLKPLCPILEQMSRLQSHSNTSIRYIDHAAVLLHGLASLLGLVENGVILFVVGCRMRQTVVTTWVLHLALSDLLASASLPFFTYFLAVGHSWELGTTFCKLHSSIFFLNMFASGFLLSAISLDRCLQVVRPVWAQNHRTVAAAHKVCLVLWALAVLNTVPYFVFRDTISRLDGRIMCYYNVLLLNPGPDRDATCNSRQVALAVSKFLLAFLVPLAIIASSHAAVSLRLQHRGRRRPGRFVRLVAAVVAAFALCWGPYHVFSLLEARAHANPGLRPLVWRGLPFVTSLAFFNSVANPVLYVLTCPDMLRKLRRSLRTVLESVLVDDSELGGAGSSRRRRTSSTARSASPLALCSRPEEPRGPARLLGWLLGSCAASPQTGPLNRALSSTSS
Assay: Binding affinity to human prostaglandin D2 receptor by cell based radioligand displacement assay

Compound | Ki [nM]
Cc1noc(C)c1CN1C(c2c(C)n(CC(=O)O)c3ccccc23)CCS1(=O)=O (racemic) | 23
Cc1ccc2c(c1)c(C1NS(=O)(=O)c3ccccc31)c(C)n2CC(=O)O (racemic) | 1500
Cc1c(C2NS(=O)(=O)c3ccccc32)c2cc(Cl)ccc2n1CC(=O)O (racemic) | 690
O=C(O)Cn1cc(C2NS(=O)(=O)c3ccccc32)c2ccccc21 (racemic) | 9200
O=C(O)Cn1cc(C2NS(=O)(=O)c3ccccc32)c2cc(Cl)ccc21 (racemic) | 2900
Cc1c(C2c3ccccc3S(=O)(=O)N2CCCOc2ccccc2)c2ccccc2n1CC(=O)O (racemic) | 1400
Cc1noc(C)c1CN1C(c2c(C)n(CC(=O)O)c3ccccc23)c2ccccc2S1(=O)=O (racemic) | 12
Cc1noc(C)c1CN1C(c2c(C)n(CC(=O)O)c3ccc(Cl)cc23)c2ccccc2S1(=O)=O (racemic) | 8
O=C(O)Cn1cc(C2c3ccccc3S(=O)(=O)N2CCc2ccccc2)c2ccccc21 (racemic) | 630
Cc1c(C2c3ccccc3S(=O)(=O)N2C(C)C)c2ccccc2n1CC(=O)O (racemic) | 920
CN1C(c2cn(CC(=O)O)c3ccccc23)c2ccccc2S1(=O)=O (racemic) | 8100

More lines, in order of falling Ki, values ahead:

Ki [nM] | Compound
2900 | Cc1ccc2c(c1)c(C1NS(=O)(=O)c3ccccc31)cn2CC(=O)O (racemic)
2800 | Cc1c(C2NS(=O)(=O)c3ccccc32)c2ccccc2n1CC(=O)O (racemic)
2300 | CC(C)CCN1C(c2cn(CC(=O)O)c3ccccc23)c2ccccc2S1(=O)=O (racemic)
2000 | N#Cc1ccc2c(c1)c(C1NS(=O)(=O)c3ccccc31)cn2CC(=O)O (racemic)
1400 | Cc1c(C2c3ccccc3S(=O)(=O)N2CCO)c2ccccc2n1CC(=O)O (racemic)
1100 | O=C(O)Cn1cc(C2c3ccccc3S(=O)(=O)N2Cc2ccccc2)c2ccccc21 (racemic)
560 | Cc1c(C2c3ccccc3S(=O)(=O)N2CCC(C)C)c2ccccc2n1CC(=O)O (racemic)
480 | Cc1c(C2c3ccccc3S(=O)(=O)N2c2ccccc2)c2ccccc2n1CC(=O)O (racemic)
430 | Cc1c(C2NS(=O)(=O)c3ccccc32)c2cc(F)ccc2n1CC(=O)O (racemic)
220 | Cc1c(C2c3ccccc3S(=O)(=O)N2CCc2ccccc2)c2ccccc2n1CC(=O)O (racemic)
38 | Cc1noc(C)c1CN1C(C)(c2c(C)n(CC(=O)O)c3ccccc23)c2ccccc2S1(=O)=O (racemic)
35 | Cc1c(C2c3ccccc3S(=O)(=O)N2CCOc2ccc(Cl)cc2)c2ccccc2n1CC(=O)O (racemic)
29 | Cc1c(C2c3ccccc3S(=O)(=O)N2CCOc2ccccc2)c2ccccc2n1CC(=O)O (racemic)
18 | Cc1noc(C)c1CN1C(c2cn(CC(=O)O)c3ccccc23)c2ccccc2S1(=O)=O (racemic)
13 | Cc1noc(-c2ccccc2)c1CN1C(c2c(C)n(CC(=O)O)c3ccccc23)c2ccccc2S1(=O)=O (racemic)

Target: T2, Prostaglandin D2 receptor (Homo sapiens) (UniProt Q13258)
T2 sequence (whole entry): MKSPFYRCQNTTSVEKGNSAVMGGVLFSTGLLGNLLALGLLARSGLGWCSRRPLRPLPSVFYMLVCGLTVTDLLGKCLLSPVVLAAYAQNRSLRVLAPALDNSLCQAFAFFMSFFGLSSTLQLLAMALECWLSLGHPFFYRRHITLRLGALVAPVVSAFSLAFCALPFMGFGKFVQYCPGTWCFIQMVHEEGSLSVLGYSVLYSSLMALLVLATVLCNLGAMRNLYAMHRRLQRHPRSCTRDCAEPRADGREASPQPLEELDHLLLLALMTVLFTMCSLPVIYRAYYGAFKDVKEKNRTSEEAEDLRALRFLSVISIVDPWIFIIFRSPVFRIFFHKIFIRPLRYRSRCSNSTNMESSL
Assay: Binding affinity to human prostaglandin D1 receptor at 10 uM by radioligand displacement assay

Compound | inhibition [%]
Cc1noc(C)c1CN1C(c2c(C)n(CC(=O)O)c3ccccc23)c2ccccc2S1(=O)=O (racemic) | 0
Cc1noc(C)c1CN1C(c2c(C)n(CC(=O)O)c3ccc(Cl)cc23)c2ccccc2S1(=O)=O (racemic) | 15

Results, then the molecule that gave them:

inhibition [%] | Compound
28 | Cc1c(C2c3ccccc3S(=O)(=O)N2CCOc2ccc(Cl)cc2)c2ccccc2n1CC(=O)O (racemic)
0 | Cc1c(C2c3ccccc3S(=O)(=O)N2CCOc2ccccc2)c2ccccc2n1CC(=O)O (racemic)

Target: T3, Thromboxane A2 receptor (Homo sapiens) (UniProt P21731)
T3 sequence (whole entry): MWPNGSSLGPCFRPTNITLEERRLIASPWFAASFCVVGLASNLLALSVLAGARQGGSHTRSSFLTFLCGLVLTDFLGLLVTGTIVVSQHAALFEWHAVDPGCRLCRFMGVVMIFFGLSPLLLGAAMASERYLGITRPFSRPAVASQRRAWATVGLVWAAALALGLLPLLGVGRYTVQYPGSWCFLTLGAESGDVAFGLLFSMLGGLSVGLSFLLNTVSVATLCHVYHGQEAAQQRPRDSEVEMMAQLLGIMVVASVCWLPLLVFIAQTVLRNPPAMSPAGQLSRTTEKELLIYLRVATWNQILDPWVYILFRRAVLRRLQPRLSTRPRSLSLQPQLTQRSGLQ
Assay: Binding affinity to human thromboxane A2 receptor at 10 uM by radioligand displacement assay

inhibition [%] | Compound
0 | Cc1noc(C)c1CN1C(c2c(C)n(CC(=O)O)c3ccccc23)c2ccccc2S1(=O)=O (racemic)
0 | Cc1noc(C)c1CN1C(c2c(C)n(CC(=O)O)c3ccc(Cl)cc23)c2ccccc2S1(=O)=O (racemic)

Target: T4, Thromboxane A2 receptor (Homo sapiens, UniProt P21731)
T4 sequence (P21731 whole entry): T3 sequence (whole entry)
Assay: Binding affinity to human thromboxane A2 receptor by radioligand displacement assay

Ki [µM] | Compound
3.4 | Cc1c(C2c3ccccc3S(=O)(=O)N2CCOc2ccc(Cl)cc2)c2ccccc2n1CC(=O)O (racemic)
7.8 | Cc1c(C2c3ccccc3S(=O)(=O)N2CCOc2ccccc2)c2ccccc2n1CC(=O)O (racemic)

Target: T1, Prostaglandin D2 receptor 2
Assay: Antagonist activity at human prostaglandin D2 receptor assessed as inhibition of PGD2-induced receptor activation by cell based FLIPR assay
Format: functional

Ki [nM] | Compound
28 | Cc1noc(C)c1CN1C(c2c(C)n(CC(=O)O)c3ccccc23)c2ccccc2S1(=O)=O (racemic)
